Assay results as given in publication PMC7004565, “Nucleotide inhibition of the pancreatic ATP-sensitive K^+ channel explored with patch-clamp fluorometry” (eLife, 2020).
Several values for one entry are separate records, joined by “and”; a condition that tells them apart may be missing. Identical values can stand only once.

Tests used:
Kir6.2-GFP + SUR1 = Kir6.2-GFP + SUR1 (Homo sapiens, UniProt Q14654); test: FRET (ANAP quenching) nucleotide binding in unroofed membranes; parameters: full length, fully ANAP-labelled Kir6.2 protein was produced and successfully trafficked to the membrane in the presence of SUR1; expressed in transfected cells; host or cells: HEK-293T; conditions: Hill fit
Chain of Kir6.2-GFP + SUR1 (Q09428 whole entry partner, one chain of several, the tested form may be a part): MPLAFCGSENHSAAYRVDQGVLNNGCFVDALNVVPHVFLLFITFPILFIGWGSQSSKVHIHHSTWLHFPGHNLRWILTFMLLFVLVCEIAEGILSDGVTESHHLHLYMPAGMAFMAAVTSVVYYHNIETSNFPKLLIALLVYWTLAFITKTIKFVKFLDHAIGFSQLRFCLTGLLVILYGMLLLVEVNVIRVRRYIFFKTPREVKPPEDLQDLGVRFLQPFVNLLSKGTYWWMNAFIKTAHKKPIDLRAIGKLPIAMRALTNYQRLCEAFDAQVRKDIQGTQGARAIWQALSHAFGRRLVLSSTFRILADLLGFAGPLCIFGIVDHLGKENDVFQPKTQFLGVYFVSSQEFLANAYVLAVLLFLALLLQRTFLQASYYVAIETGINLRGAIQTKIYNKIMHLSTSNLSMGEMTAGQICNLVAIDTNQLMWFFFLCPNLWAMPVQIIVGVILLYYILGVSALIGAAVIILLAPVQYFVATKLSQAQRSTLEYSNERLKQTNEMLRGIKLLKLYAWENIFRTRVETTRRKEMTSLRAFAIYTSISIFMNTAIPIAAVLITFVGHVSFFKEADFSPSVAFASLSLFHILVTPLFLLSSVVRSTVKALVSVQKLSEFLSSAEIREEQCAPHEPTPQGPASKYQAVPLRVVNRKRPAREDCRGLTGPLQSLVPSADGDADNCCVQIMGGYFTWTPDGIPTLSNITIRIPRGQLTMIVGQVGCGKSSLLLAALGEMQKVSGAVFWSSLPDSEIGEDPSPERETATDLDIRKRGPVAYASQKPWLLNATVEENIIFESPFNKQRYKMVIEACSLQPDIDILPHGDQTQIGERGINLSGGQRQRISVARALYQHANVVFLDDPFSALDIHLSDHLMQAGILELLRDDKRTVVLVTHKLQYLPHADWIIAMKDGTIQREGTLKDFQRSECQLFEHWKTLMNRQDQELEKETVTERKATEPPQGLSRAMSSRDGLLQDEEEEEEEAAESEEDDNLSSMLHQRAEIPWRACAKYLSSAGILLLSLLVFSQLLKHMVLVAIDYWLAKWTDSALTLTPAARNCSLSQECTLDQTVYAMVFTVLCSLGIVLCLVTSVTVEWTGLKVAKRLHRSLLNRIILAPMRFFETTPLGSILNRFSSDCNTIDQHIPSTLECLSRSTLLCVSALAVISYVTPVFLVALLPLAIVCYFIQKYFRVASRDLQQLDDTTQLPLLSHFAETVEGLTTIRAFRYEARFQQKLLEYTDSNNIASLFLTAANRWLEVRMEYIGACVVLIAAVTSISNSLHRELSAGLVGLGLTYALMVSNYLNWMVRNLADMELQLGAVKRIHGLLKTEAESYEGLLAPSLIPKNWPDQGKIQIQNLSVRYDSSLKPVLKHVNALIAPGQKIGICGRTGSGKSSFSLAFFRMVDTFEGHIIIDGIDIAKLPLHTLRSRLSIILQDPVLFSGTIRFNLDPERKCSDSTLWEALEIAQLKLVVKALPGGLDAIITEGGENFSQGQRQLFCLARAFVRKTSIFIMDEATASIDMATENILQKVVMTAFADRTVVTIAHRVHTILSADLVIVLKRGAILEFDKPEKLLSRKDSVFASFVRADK
Description: To measure nucleotide binding, cells transfected with Kir6.2*-GFP + SUR1 were briefly sonicated, leaving behind unroofed plasma membrane fragments ([Heuser, 2000]; [Zagotta et al., 2016]; [Puljung et al., 2019]) containing ANAP-labelled KATP channels with the intracellular nucleotide-binding sites exposed to the bath solution. The sample was excited with a 385 nm LED and emitted fluorescence from the membrane fragments was passed through a spectrometer, allowing us to separate ANAP, GFP, and TNP-ATP fluorescence by peak wavelength (Figure 1E,F). As expected from FRET, increasing the concentration of TNP-ATP caused a decrement in the ANAP peak at 472 nm and a concomitant increase in the TNP-ATP peak at 561 nm (Figure 1F). We used the quenching of the ANAP peak as a direct measure of TNP-ATP binding as this signal was specific to KATP. In contrast, the peak TNP-ATP fluorescence may include contributions from both specific and non-specific nucleotide binding, as well as direct excitation of TNP-ATP in solution by the 385 nm excitation light. Due to the sharp cut-off of the GFP emission spectrum at shorter wavelengths, our measurements of peak ANAP fluorescence were unaffected by the presence of the GFP tag on Kir6.2. […]
Epifluorescence imaging and spectroscopy were performed using a Nikon Eclipse TE2000-U microscope with a 60x water immersion objective (Plan Apo VC, NA = 1.2, Nikon; Kingston upon Thames, UK) or a 100x oil immersion objective (Nikon, Apo TIRF, NA = 1.49). […] Fluorescence spectra were collected by exciting ANAP as above but using a 400 nm long-pass emission filter (ThorLabs), then passing emitted light through an IsoPlane 160 Spectrometer (Princeton Instruments; Trenton, NJ) with a 300 grooves mm^-1 grating. […]
Unroofed membranes were prepared as described previously ([Heuser, 2000]; [Zagotta et al., 2016]; [Puljung et al., 2019]). […] Unroofed membrane fragments were nearly invisible in bright-field images and identified by their GFP and ANAP fluorescence. […]

Kir6.2-GFP (no SUR1) = target: T1, Kir6.2-GFP (no SUR1) (Homo sapiens, UniProt Q14654); test: Current inhibition in excised inside-out patches; type: biochemical; conditions: excised inside-out patches, no SUR1, Mg2+-free, Hill fit
T1 construct: ANAP labelling is specific and only full-length Kir6.2 is expressed at the cell membrane; expressed in transfected cells; host or cells: HEK-293T
T1 sequence (Q14654 1-390): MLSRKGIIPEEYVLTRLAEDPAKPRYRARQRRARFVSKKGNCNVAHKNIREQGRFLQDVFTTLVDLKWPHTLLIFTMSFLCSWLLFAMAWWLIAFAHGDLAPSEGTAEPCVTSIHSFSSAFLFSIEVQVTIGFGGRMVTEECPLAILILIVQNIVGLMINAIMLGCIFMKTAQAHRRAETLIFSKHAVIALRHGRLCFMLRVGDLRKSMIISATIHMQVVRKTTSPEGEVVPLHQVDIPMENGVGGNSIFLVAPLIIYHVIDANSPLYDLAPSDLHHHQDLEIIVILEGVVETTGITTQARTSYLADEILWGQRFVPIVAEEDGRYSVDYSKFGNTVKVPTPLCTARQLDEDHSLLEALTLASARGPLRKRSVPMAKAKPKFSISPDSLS
Description: Currents were measured from patches from cells expressing KATP that were excised in the absence of Mg^2+. Under such conditions, nucleotides can bind to both sites on SUR1, but no activation occurs, allowing inhibitory currents to be measured in isolation ([Gribble et al., 1998]; [Ueda et al., 1999]; [Puljung et al., 2019]).

## Nc1ncnc2c1ncn2[C@@H]1O[C@H](COP(=O)(O)OP(=O)(O)OP(=O)(O)O)[C@H]2OC3(O[C@H]21)C([N+](=O)[O-])=CC(=[N+]([O-])[O-])C=C3[N+](=O)[O-] (some centres unmarked) [TNP-ATP, trinitrophenyl-ATP]
Kir6.2-GFP + SUR1
  h (Hill coefficient) fluorescence quenching: 0.82
Kir6.2-GFP + SUR1; fraction, read-out: Emax fluorescence quenching
  Emax: 93%
Kir6.2-GFP + SUR1; n = 18, read-out: EC50 fluorescence quenching
  EC50: 25.6 µM and 25.7 µM
Kir6.2-GFP (no SUR1); IC50 current inhibition
  IC50: 273 µM and 275 µM
Kir6.2-GFP (no SUR1)
  h (Hill coefficient) current inhibition: 1.09
